# In PubChem BioAssay AID1918941 (Molecular Pharmacology Branch, DTP, NCI, 2023):
# System: SW 1271 complex spheroids, viability
# Assay: Anticancer human tumor SW 1271 cell line growth inhibition [LSD1];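 also: spheroids exposed to agents for 7 days before luminescence read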;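 as to viability, T/C: 100% = DMSO vehicle control viability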
# Settings: for IC50: curve of first compound; for viability, T/C: stronger effect = lower value
# How it was run: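 Multicellular complex spheroids of tumor cells with human endothelial cells (HUVEC) and mesenchymal stem cells; the LSD1 inhibitor iadademstat was combined with standard-of-care or investigational agents. Top concentration at or near clinical Cmax, half-log dilutions; final DMSO ≤0.25%.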
# [1] = second compound 0.1 µM, first compound 0.00316 µM
# [2] = second compound 0.1 µM, first compound 0.01 µM
# [3] = second compound 0.1 µM, first compound 0.0316 µM
# [4] = second compound 0.1 µM, first compound 0.1 µM
# [5] = second compound 0.1 µM, first compound 0.316 µM
# [6] = second compound 0.1 µM, first compound 1 µM
# [7] = second compound 0.316 µM, first compound 0.00316 µM
# [8] = second compound 0.316 µM, first compound 0.01 µM
# [9] = second compound 0.316 µM, first compound 0.0316 µM
# [10] = second compound 0.316 µM, first compound 0.1 µM
# [11] = second compound 0.316 µM, first compound 0.316 µM
# [12] = second compound 0.316 µM, first compound 1 µM
# [13] = second compound 1 µM, first compound 0.00316 µM
# [14] = second compound 1 µM, first compound 0.01 µM
# [15] = second compound 1 µM, first compound 0.0316 µM
# [16] = second compound 1 µM, first compound 0.1 µM
# [17] = second compound 1 µM, first compound 0.316 µM
# [18] = second compound 1 µM, first compound 1 µM
# [19] = second compound 3.16 µM, first compound 0.00316 µM
# [20] = second compound 3.16 µM, first compound 0.01 µM
# [21] = second compound 3.16 µM, first compound 0.0316 µM
# [22] = second compound 3.16 µM, first compound 0.1 µM
# [23] = second compound 3.16 µM, first compound 0.316 µM
# [24] = second compound 3.16 µM, first compound 1 µM
# [25] = second compound 10 µM, first compound 0.00316 µM
# [26] = second compound 10 µM, first compound 0.01 µM
# [27] = second compound 10 µM, first compound 0.0316 µM
# [28] = second compound 10 µM, first compound 0.1 µM
# [29] = second compound 10 µM, first compound 0.316 µM
# [30] = second compound 10 µM, first compound 1 µM
SMILES,IC50 (second compound 0.1 µM),IC50 (second compound 0.316 µM),IC50 (second compound 1 µM),IC50 (second compound 3.16 µM),IC50 (second compound 10 µM),"viability, T/C [3]","viability, T/C [4]","viability, T/C [5]","viability, T/C [6]","viability, T/C [9]","viability, T/C [10]","viability, T/C [11]","viability, T/C [12]","viability, T/C [15]","viability, T/C [16]","viability, T/C [17]","viability, T/C [18]","viability, T/C [21]","viability, T/C [22]","viability, T/C [23]",also measured
Nc1ncn(C2CC(O)C(CO)O2)c(=O)n1 (stereo not given) + NC1CC1c1ccc(-c2cccc(O)c2)cc1,> 1 µM,> 1 µM,> 1 µM,> 1 µM,> 1 µM,84.7%,62.4%,66.7%,81%,75.2%,71.6%,70.5%,77.7%,81.8%,56.2%,69.5%,64.1%,69.8%,63.9%,52.7%,"viability, T/C [1]: 96.2%; viability, T/C [2]: 77.9%; viability, T/C [7]: 68%; viability, T/C [8]: 73.2%; viability, T/C [13]: 76.4%; viability, T/C [14]: 73.5%; viability, T/C [19]: 69.5%; viability, T/C [20]: 69.7%; viability, T/C [24]: 72.7%; viability, T/C [25]: 69.5%; viability, T/C [26]: 70.6%; viability, T/C [27]: 61%; viability, T/C [28]: 57.9%; viability, T/C [29]: 57.7%; viability, T/C [30]: 59%"
CC1COCCN1c1cc(C2(S(C)(=N)=O)CC2)nc(-c2ccnc3[nH]ccc23)n1 (stereo not given) + NC1CC1c1ccc(-c2cccc(O)c2)cc1,1.87 µM,2.6 µM,> 10 µM,1.36 µM,0.954 µM,84.8%,79.5%,65.5%,49%,81.3%,82.1%,65%,57.1%,75%,95.2%,70.1%,56.7%,70.2%,69.9%,72.6%,"viability, T/C (second compound 0.1 µM, first compound 3.16 µM): 53.7%; viability, T/C (second compound 0.1 µM, first compound 10 µM): 45.6%; viability, T/C (second compound 0.316 µM, first compound 3.16 µM): 46%; viability, T/C (second compound 0.316 µM, first compound 10 µM): 49.4%; viability, T/C (second compound 1 µM, first compound 3.16 µM): 51.6%; viability, T/C (second compound 1 µM, first compound 10 µM): 47.1%; viability, T/C [24]: 51.7%; viability, T/C (second compound 3.16 µM, first compound 3.16 µM): 46.7%; viability, T/C (second compound 3.16 µM, first compound 10 µM): 43.8%; viability, T/C [27]: 48.1%; viability, T/C [28]: 61.1%; viability, T/C [29]: 59.2%; viability, T/C [30]: 49.7%; viability, T/C (second compound 10 µM, first compound 3.16 µM): 42%; viability, T/C (second compound 10 µM, first compound 10 µM): 46.2%"
CC1COCCN1c1cc(-c2ccnn2C)c2ccnc(-c3ccn[nH]3)c2n1 (stereo not given) + NC1CCC(NC2CC2c2ccccc2)CC1,0.0595 µM,0.103 µM,0.0553 µM,0.0554 µM,0.0473 µM,56.3%,42.7%,42.2%,29.8%,58.2%,42.7%,48.8%,28.6%,56.2%,39.6%,44.3%,30.3%,55.8%,44.8%,42%,"viability, T/C [1]: 59.3%; viability, T/C [2]: 76.7%; viability, T/C [7]: 71.4%; viability, T/C [8]: 71.2%; viability, T/C [13]: 68.5%; viability, T/C [14]: 62%; viability, T/C [19]: 68.4%; viability, T/C [20]: 56.4%; viability, T/C [24]: 31.4%; viability, T/C [25]: 78.1%; viability, T/C [26]: 66.9%; viability, T/C [27]: 53.1%; viability, T/C [28]: 41.8%; viability, T/C [29]: 38.5%; viability, T/C [30]: 29.9%"
